Results as given in patent publication US6399542B1, “Alkoxyimino-substituted bicyclic compounds compositions containing the same and method of making such compounds” (Agro-Kanesho Co., Ltd., priority 1997, dated 2002).
Like-named read-outs stand apart in the source and are kept apart here.

Tests used:
Erysiphe graminis = assay: Effects on Barley powdery mildew (preventive spray test); format: in vivo; settings: lesions counted seven days after inoculation
Puccinia recondita = assay: Effect on Wheat brown rust (preventive spray test); format: in vivo; settings: 7 days after inoculation
Phytophthora infestans = format: in vivo; settings: Tomato late blight, 5 days after inoculation
[1] = test system: Psecidoperonospora cubensis; assay: Effect on Cucumber downy mildew (preventive spray test); format: in vivo; settings: 7 days after inoculation
Pyricularia oryzae = format: in vivo; settings: Rice blast, 7 days after inoculation
Chochliobolus miyabeanus = assay: Effect on Rice brown spot (preventive spray test); format: in vivo; settings: 7 days after inoculation
Rhizoctonia solani = assay: Effect on Rice sheath blight (preventive spray test); settings: 10 days after inoculation
Protocol: An emulsion of a compound of the present invention prepared in Preparation Example 2 was diluted with water and uniformly sprayed on 5 rice plant seedlings (variety: Koshihikari) in 4.5-leaf stage in each plastic pot having a diameter of 6 cm, with a spray gun. One day after the spraying, the seedlings were bundled at the second sheath with a string. Colonies of Rhizoctonia solani previously cultured in PSA culture medium were bored with a cork borer to obtain pieces having a diameter of 4 mm. The piece was put in the bundle, and kept in a high-humidity room at 25° C. until the examination. Ten days after the inoculation, the degree of the disease was examined, and the preventive rate (effect of inhibiting the disease) was calculated on the basis of the following standard:
Preventive rate=[1-D′/C′]×100
C′: Severity in untreated section
D′: Severity in treated section.

Botrytis cinerea = assay: Effect on Cucumber gray mold (cotyledon paper disc test); format: in vivo; settings: 3 days after inoculation
Puccinia recondite = assay: Penetration and translocation in wheat leaves (covered leaf tip, brown rust); format: in vivo; settings: conc. of active ingredient 100 ppm
[2] = conc. of active ingredient 4 ppm
[3] = conc. of active ingredient 20 ppm
[4] = conc. of active ingredient 100 ppm

SMILES	Preventive rate (%) (Erysiphe graminis; [2])	Preventive rate (%) (Erysiphe graminis; [3])	Preventive rate (%) (Erysiphe graminis; [4])	Preventive rate (%) (Puccinia recondita; [2])	Preventive rate (%) (Puccinia recondita; [3])	Preventive rate (%) (Puccinia recondita; [4])	Preventive rate (%) (Phytophthora infestans; [3])	Preventive rate (%) (Phytophthora infestans; [4])	Preventive rate (%) [1, 2]	Preventive rate (%) [1, 3]	Preventive rate (%) [1, 4]	Preventive rate (%) (Pyricularia oryzae; [3])	Preventive rate (%) (Pyricularia oryzae; [4])	Preventive rate (%) (Chochliobolus miyabeanus; [3])	Preventive rate (%) (Chochliobolus miyabeanus; [4])	Preventive rate (%) (Rhizoctonia solani; [3])	Preventive rate (%) (Rhizoctonia solani; [4])	Preventive rate (%) (Botrytis cinerea; [3])	Preventive rate (%) (Botrytis cinerea; [4])	also measured
CNC(=O)/C(=N/OC)c1ccccc1COc1ccc2c(c1C)OC(C)C2=NOC (centres unmarked) [b-7]	99%	100%	100%	99%	100%	100%	95%	100%	89%	93%	96%	89%	100%	95%	96%	86%	98%			Preventive rate (%) (Chochliobolus miyabeanus; [2]): 56%
CON=C(C(=O)OC)c1ccccc1COc1ccc2c(c1)OCCC2=NOC [c-4]						100%	97%	97%		94%	100%	86%	90%	80%	80%	53%	98%			
CON=C(C(=O)OC)c1ccccc1COc1ccc2c(c1C)OCCC2=NOC [c-15]	100%	100%	100%		100%	100%	94%	100%	81%	100%	100%	80%	100%	97%	100%			75%	77%	Preventive rate (%) (Phytophthora infestans; [2]): 84%
CNC(=O)C(=NOC)c1ccccc1COc1ccc2c(c1C)OCCC2=NOC [c-16]		100%	100%		100%	100%	100%	100%				91%	100%					49%	60%	Preventive rate (%) (Phytophthora infestans; [2]): 84%
CNC(=O)C(=NOC)c1ccccc1COc1cc2c(cc1C)C(=NOC)CCO2 [c-27]	100%	100%	100%	96%	100%	100%	98%	100%	86%	93%	96%	95%	100%			93%	94%			
CCc1c(OCc2ccccc2C(=NOC)C(=O)NC)ccc2c1OCCC2=NOC [c-30]	95%	100%	100%	100%	100%	100%						100%	100%			56%	98%			
CNC(=O)C(=NOC)c1ccccc1COc1ccc2c(c1C)OCCC2=NOCc1c(F)c(F)c(F)c(F)c1F [c-83]		96%	100%	95%	100%	100%										79%	81%			
CNC(=O)C(=NOC)c1ccccc1COc1ccc2c(c1C)CCC2=NOC [e-16]	100%	100%	100%		100%	100%	100%	100%		100%	100%									Number of lesions formed within the mark to the tip (Puccinia recondite): 0; Preventive rate (%) (Puccinia recondite): 100%; Rate of the translocation perfect preventive conc. (%) (Puccinia recondite): 100%
CNC(=O)C(=NOC)c1ccccc1COc1cc(C)c2c(c1C)CCC2=NOC [e-23]	100%	100%	100%		100%	100%	100%	100%		96%	100%			98%	98%	64%	69%	86%	96%	
